{
  "source": "patent US20050106226A1",
  "about": "“Pretreatment method and system for enhancing transdermal drug delivery” (priority 2003, published 2005)",
  "key": {"[1]": {"experiment": "Passive transdermal delivery of PPS from hydrogel gel patch after microprojection array pretreatment, determined by urinary excretion of tritium", "format": "in vivo, hairless guinea pig", "conditions": "passive diffusion", "description": "In this experiment, PPS was delivered by passive diffusion through skin pathways created by a pretreatment device having a microprojection array. The microprojection array comprised a stainless steel sheet having a thickness of 0.025 mm, trapezoidally shaped microprojections bent at an angle of approximately 90° to the plane of the sheet and a microprojection density of 241 microprojections/cm^2. […] The gel patch comprised a foam, double adhesive ring (diameter 3.8 cm, thickness 0.16 cm) having 0.35 mL of a hydrogel formulation and a skin contact area of 2 cm^2. The hydrogel formulation included tritiated PPS at 50 mg/mL in a 2% hydroxyethyl cellulose ([…], HERCULES Int. Lim. Netherlands, determined molecular weight: Mw 1890000, Mn 1050000) hydrogel. […] The amount of the biologically active agent (or drug) that penetrated the skin during selected time intervals was determined by measuring urinary excretion of tritium (previous studies had shown that in HGP's 32% of 3H-PPS injected intravenously is excreted in urine). […] After 24 h delivery, more than 6 mg of PPS had been administered systemically."}, "[2]": {"conditions": "injected intravenously, HGP; cited from earlier work"}},
  "data": [
    {"substance": "pentosan polysulfate [PPS]", "values": [
      {"measurement": "amount of PPS administered systemically", "setting": "[1]; after 24 h delivery, tritiated PPS 50 mg/mL in 2% HEC hydrogel, 0.35 mL, 2 cm^2", "value": "more than 6 mg"},
      {"measurement": "flux of PPS through the skin", "setting": "[1]; FIG. 19", "value": "time dependant flux"},
      {"measurement": "fraction of 3H-PPS excreted in urine", "setting": "[2]", "value": 32, "unit": "%"}
    ]}
  ]
}
